We go through 5 molecules from article PMC3034307 (Bioorganic & medicinal chemistry letters, 2010).

Assay [1] deals with T1, Shp2 PTP (Homo sapiens, UniProt Q06124).
T1 sequence (Q06124 1-593): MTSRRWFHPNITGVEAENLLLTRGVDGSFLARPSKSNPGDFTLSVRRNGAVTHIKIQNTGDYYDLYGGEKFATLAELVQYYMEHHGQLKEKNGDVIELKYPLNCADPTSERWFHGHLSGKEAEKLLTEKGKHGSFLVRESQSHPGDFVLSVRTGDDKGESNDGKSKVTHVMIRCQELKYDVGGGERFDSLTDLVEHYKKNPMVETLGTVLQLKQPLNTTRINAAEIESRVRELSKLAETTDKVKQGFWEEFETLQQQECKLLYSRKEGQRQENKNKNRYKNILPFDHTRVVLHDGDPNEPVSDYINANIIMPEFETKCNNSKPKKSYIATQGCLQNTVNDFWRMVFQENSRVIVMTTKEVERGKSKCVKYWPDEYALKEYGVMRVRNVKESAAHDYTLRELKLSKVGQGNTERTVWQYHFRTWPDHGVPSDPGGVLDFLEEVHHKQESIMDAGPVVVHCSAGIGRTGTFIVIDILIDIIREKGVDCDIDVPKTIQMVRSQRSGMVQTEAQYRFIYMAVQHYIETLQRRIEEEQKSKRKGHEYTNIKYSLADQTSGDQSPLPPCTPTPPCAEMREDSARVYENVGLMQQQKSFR
Briefly: Shp2 PTP inhibition assay. Format: biochemical. The conditions noted are these: for Inhibition of Shp2 PTP activity at the highest concentration tested: 300 µM.

Assay [2] addresses T1, Shp2 PTP. Briefly: Enzyme kinetic assay using DiFMUP as the substrate. Type of assay: biochemical.
The next assay deals with T2, Shp2 (Homo sapiens, UniProt Q06124).
T2 sequence (Q06124 1-593): T1 sequence (Q06124 1-593)
Briefly: Surface plasmon resonance. Format: binding. The conditions noted are these: SPR. Background: In SPR one partner is held on a chip, and binding of the other changes the refractive index at the surface.

With `C[C@]12CC[C@@H]3c4ccc(O)cc4CC[C@H]3[C@@H]1CC[C@@H]2O` [Estradiol, estradiol], on Shp2 PTP [1], the “Inhibition of Shp2 PTP activity at the highest concentration tested” value (“Inhibition of Shp2 PTP activity” below) is “did not inhibit”.

By Ki is commonly meant the dissociation constant of the complex between target and ligand, obtained from inhibition or displacement. A low value points to tighter binding. The molecule `C[C@]12CC[C@@H]3c4ccc(OC(=O)N(CCCl)CCCl)cc4CC[C@H]3[C@@H]1CC[C@@H]2OP(=O)(O)O` [Estramustine phosphate, estramustine phosphate] displayed a Ki at Shp2 PTP [2] of 22.8 µM. The “Inhibition kinetics (best fit)” value at Shp2 PTP [2] (DiFMUP substrate) was “mixed inhibition kinetics”. Further, the “association rate constant ka” value at Shp2 came to 2200 M⁻¹ s⁻¹.

For `C[C@]12CC[C@@H]3c4ccc(OC(=O)N(CCCl)CCCl)cc4CC[C@H]3[C@@H]1CC[C@@H]2O` [Estramustine, estramustine], the “Inhibition of Shp2 PTP activity” value on Shp2 PTP [1] is reported as “did not inhibit”.

For `CC1=C(O)C(=O)C=C2C1=CC=C1[C@@]2(C)CC[C@@]2(C)[C@@H]3C[C@@H](C)C(=O)C[C@]3(C)CC[C@]12C` [Maitenin], on Shp2 PTP [1], the “Fold less potent than celastrol in Shp2 inhibition” value turned out to be 18 fold.

Take `COc1ccc2c(c1)CC[C@@H]1[C@@H]2CC[C@@]2(C)[C@H]1CC[C@@]21CCNP(=O)(N(CCCl)CCCl)O1` (stereo partly shown) [NSC233064]: the “Inhibition of Shp2 PTP activity” value at Shp2 PTP [1] is recorded as “did not inhibit”.
